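Briefly, cells in 96-well plates were exposed to five compound concentrations for 48 h, and endpoints were estimated by linear interpolation. At the GI50, growth is halved.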 Active and inactive are the calls of the source. No stated cut-off is given here; in the data, active = GI50 up to about 1.1 µM and inactive = higher.
Tests used:
Assay in all cases: NCI-60 cell line screen, 48 h
[1] = tested on: RPMI-8226
[2] = tested on: Malme-3M
[3] = tested on: RXF 631
[4] = tested on: UO-31
[5] = tested on: UACC-62
[6] = tested on: DLD-1
[7] = tested on: NCI-H522
[8] = tested on: NCI-H460
[9] = tested on: SK-MEL-5
[10] = tested on: IGROV-1
[11] = tested on: SNB-19
[12] = tested on: SF-539
[13] = tested on: OVCAR-4
[14] = tested on: TK-10
[15] = tested on: SNB-75
[16] = tested on: M19-MEL
[17] = tested on: SW-620
[18] = tested on: OVCAR-3
[19] = tested on: SNB-78
[20] = tested on: ACHN
[21] = tested on: XF498
[22] = tested on: OVCAR-5
[23] = tested on: A498
[24] = tested on: SF-295
[25] = tested on: SK-MEL-2
[26] = tested on: LXFL 529
[27] = tested on: HL-60
[28] = tested on: RXF 393
[29] = tested on: SN12C
[30] = tested on: NCI-H23
[31] = tested on: 786-0
[32] = tested on: KM12
[33] = tested on: LOX IMVI
[34] = tested on: HCT-116
[35] = tested on: SK-MEL-28
[36] = tested on: U-251
[37] = tested on: HOP-62
[38] = tested on: COLO 205
[39] = tested on: OVCAR-8
[40] = tested on: DMS-114
[41] = tested on: M14
[42] = tested on: A549
[43] = tested on: HT-29
[44] = tested on: NCI-H226
[45] = tested on: SF-268
[46] = tested on: HCC 2998
[47] = tested on: K562
[48] = tested on: KM-20L2
[49] = tested on: CCRF-CEM
[50] = tested on: UACC-257
[51] = tested on: DMS-273
[52] = tested on: HCT-15
[53] = tested on: CAKI-1
[54] = tested on: HOP-92
[55] = tested on: EKVX
[56] = tested on: MOLT-4

## CN1c2ccccc2N(C)C2C1N(C)c1ccccc1N2C (stereo unspecified)
[1]
  GI50: 5.11 µM (inactive)
[2]
  GI50: 16.6 µM (inactive)
[3]
  GI50: 37.1 µM (inactive)
[4]
  GI50: 31.6 µM (inactive)
[5]
  GI50: 5.15 µM (inactive)
[6]
  GI50: 14.1 µM (inactive)
[7]
  GI50: 4.73 µM (inactive)
[8]
  GI50: 20.8 µM (inactive)
[9]
  GI50: 3.72 µM (inactive)
[10]
  GI50: 20.7 µM (inactive)
[11]
  GI50: 18.8 µM (inactive)
[12]
  GI50: 15.3 µM (inactive)
[13]
  GI50: 26 µM (inactive)
[14]
  GI50: 36.9 µM (inactive)
[15]
  GI50: 6.9 µM (inactive)
[16]
  GI50: 6.84 µM (inactive)
[17]
  GI50: 7.85 µM (inactive)
[18]
  GI50: 8.71 µM (inactive)
[19]
  GI50: 18.9 µM (inactive)
[20]
  GI50: 40.1 µM (inactive)
[21]
  GI50: 7 µM (inactive)
[22]
  GI50: 59.3 µM (inactive)
[23]
  GI50: 31.6 µM (inactive)
[24]
  GI50: 31.3 µM (inactive)
[25]
  GI50: 9.59 µM (inactive)
[26]
  GI50: 12.6 µM (inactive)
[27]
  GI50: 2.29 µM (inactive)
[28]
  GI50: 11.1 µM (inactive)
[29]
  GI50: 20 µM (inactive)
[30]
  GI50: 16.8 µM (inactive)
[31]
  GI50: 32.9 µM (inactive)
[32]
  GI50: 16 µM (inactive)
[33]
  GI50: 5.25 µM (inactive)
[34]
  GI50: 12.7 µM (inactive)
[35]
  GI50: 4.69 µM (inactive)
[36]
  GI50: 26.1 µM (inactive)
[37]
  GI50: 34.3 µM (inactive)
[38]
  GI50: 10.8 µM (inactive)
[39]
  GI50: 18.6 µM (inactive)
[40]
  GI50: 5.71 µM (inactive)
[41]
  GI50: 18.2 µM (inactive)
[42]
  GI50: 26.8 µM (inactive)
[43]
  GI50: 7.78 µM (inactive)
[44]
  GI50: 23.2 µM (inactive)
[45]
  GI50: 12.3 µM (inactive)
[46]
  GI50: 9.73 µM (inactive)
[47]
  GI50: 3.42 µM (inactive)
[48]
  GI50: 15.7 µM (inactive)
[49]
  GI50: 2.81 µM (inactive)
[50]
  GI50: 6.67 µM (inactive)
[51]
  GI50: 8.75 µM (inactive)
[52]
  GI50: 4.25 µM
[53]
  GI50: 15.1 µM (inactive)
[54]
  GI50: 10.4 µM (inactive)
[55]
  GI50: 61.5 µM (inactive)
[56]
  GI50: 2.86 µM (inactive)

Source: ChEMBL document CHEMBL1201862, “PubChem BioAssay data set” (2004)
